This is an account of results in ChEMBL document CHEMBL1159211, “Antifungal evaluation of pseudolaric acid B, a major constituent of Pseudolarix kaempferi” (J Nat Prod, 1995).

Active and inactive are the calls of the source. The calls are words filed in the database; no cut-off is given here.

The test system of series [1] is Candida albicans. The experiment in a line: Antimicrobial activity against Candida albicans at 1 mg/mL by agar-well diffusion assay. Type of series: functional. As to conditions: for zone of inhibition at 1000 µg/mL: Candida albicans, read-out: IZ. On the technique in general: A growth-free zone around the sample is the usual read-out of agar diffusion tests.
In series [2] the test system is Bacillus subtilis. Description: Antimicrobial activity against Bacillus subtilis at 1 mg/mL by agar-well diffusion assay. Type of series: functional, organism-based.
Series [3] deals with Staphylococcus aureus. Description: Antimicrobial activity against Staphylococcus aureus at 1 mg/mL by agar-well diffusion assay. Format: functional, organism-based.
Series [4] relates to Cryptococcus neoformans. The experiment in a line: Antimicrobial activity against Cryptococcus neoformans at 1 mg/mL by agar-well diffusion assay. Type of series: functional.
In series [5] the test system is Aspergillus fumigatus. The experiment in a line: Antimicrobial activity against Aspergillus fumigatus at 1 mg/mL by agar-well diffusion assay. Format: functional.
Series [6] has as its system Escherichia coli. Description: Antimicrobial activity against Escherichia coli at 1 mg/mL by agar-well diffusion assay. Type of series: functional, organism-based.
Series [7] has as its system Saccharomyces cerevisiae. Description: Antimicrobial activity against Saccharomyces cerevisiae at 1 mg/mL by agar-well diffusion assay. Format: functional, organism-based.
In series [8] the test system is Pseudomonas aeruginosa. Description: Antimicrobial activity against Pseudomonas aeruginosa at 1 mg/mL by agar-well diffusion assay. Format: functional, organism-based.
Series [9] concerns Aspergillus flavus. The experiment in a line: Antimicrobial activity against Aspergillus flavus at 1 mg/mL by agar-well diffusion assay. Format: functional.
In series [10] the test system is Trichophyton mentagrophytes. Description: Antimicrobial activity against Trichophyton mentagrophytes at 1 mg/mL by agar-well diffusion assay. Type of series: functional.
In series [11] the test system is Nannizzia gypsea. The experiment in a line: Antimicrobial activity against Microsporum gypseum at 1 mg/mL by agar-well diffusion assay. Format: functional.
Series [12] has as its system Mycobacterium intracellulare. The experiment in a line: Antimicrobial activity against Mycobacterium intracellular at 1 mg/mL by agar-well diffusion assay. As to conditions: for zone of inhibition at 1000 µg/mL: read-out: IZ. Format: functional.
For series [13], the system named is Candida albicans. The experiment in a line: Antifungal activity against Candida albicans B311 infected in CD1 mouse assessed as prolongation of survival time at 10 mg/kg, iv administered 1, 3 and 5 days postinfection. Type of series: functional, organism-based. Further details: dose 10 mg/kg.
Series [14] relates to Candida albicans. The experiment in a line: Antifungal activity against Candida albicans B311 assessed decrease in number of viable cells at 1 to 10 ug/ml after 24 hrs by time-to kill curve assay. Type of series: functional, organism-based.
For series [15], the system named is Candida albicans. Description: Antifungal activity against Candida albicans B311 infected in CD1 mouse assessed as prolongation of survival time at 40 mg/kg, ip administered 7 hrs postinfection and continued for 7 or 14 consecutive days. Format: functional, organism-based. Further details: dose 40 mg/kg.
The test system of series [16] is Torula. The experiment in a line: Antifungal activity against Torula cremoris NRRL 7495 by twofold serial broth dilution method. Format: functional. In general terms: Broth dilution looks for growth in wells or tubes with falling amounts of substance.
The test system of series [17] is Yarrowia deformans. The experiment in a line: Antifungal activity against Torulopsis petrophilum ATCC 20225 by twofold serial broth dilution method. Format: functional.
The subject of series [18] is Candida albicans. The experiment in a line: Antifungal activity against Candida albicans ATCC 10231 at 1 mg/mL by agar-well diffusion assay. Format: functional.
Series [19] concerns Candida tropicalis. Description: Antifungal activity against Candida tropicalis ATCC 20326 at 1 mg/mL by agar-well diffusion assay. Format: functional.
Series [20] has as its system Candida albicans. Description: Antifungal activity against Candida albicans ATCC 10231 by twofold serial broth dilution method. Format: functional.
Series [21] relates to Candida tropicalis. The experiment in a line: Antifungal activity against Candida tropicalis LM 64 at 1 mg/mL by agar-well diffusion assay. Type of series: functional.
Series [22] has as its system Candida albicans. Description: Antifungal activity against Candida stellatoidea SA-I by twofold serial broth dilution method. Type of series: functional.
The subject of series [23] is Candida parapsilosis. Description: Antifungal activity against Candida parapsilosis ATCC 20224 at 1 mg/mL by agar-well diffusion assay. Format: functional.
The subject of series [24] is Candida tropicalis. The experiment in a line: Antifungal activity against Candida tropicalis LM 64 by twofold serial broth dilution method. Format: functional.
The subject of series [25] is Candida parapsilosis. Description: Antifungal activity against Candida parapsilosis ATCC 20224 by twofold serial broth dilution method. Type of series: functional. As to conditions: Lodderomyces parapsilosis.
Series [26] relates to Candida tropicalis. The experiment in a line: Antifungal activity against Candida tropicalis ATCC 20021 at 1 mg/mL by agar-well diffusion assay. Type of series: functional.
Series [27] relates to Mus musculus. Description: Toxicity in CD1 mouse assessed as body weight at 40 mg/kg, ip administered for 14 consecutive days measured after day 14. Format: organism-based. Further details: dose 40 mg/kg, route intraperitoneal. As to conditions: in vivo.
The subject of series [28] is Yarrowia deformans. Description: Antifungal activity against Torulopsis petrophilum ATCC 20225 at 1 mg/mL by agar-well diffusion assay. Format: functional.
Series [29] concerns Candida albicans. The experiment in a line: Antifungal activity against Candida albicans B311 at 1 mg/mL by agar-well diffusion assay. Type of series: functional.
The subject of series [30] is Candida albicans. Description: Antifungal activity against Candida stellatoidea SA-I at 1 mg/mL by agar-well diffusion assay. Format: functional.
In series [31] the test system is Candida tropicalis. Description: Antifungal activity against Candida tropicalis ATCC 20021 by twofold serial broth dilution method. Type of series: functional.
The subject of series [32] is Candida tropicalis. The experiment in a line: Antifungal activity against Candida tropicalis ATCC 20326 by twofold serial broth dilution method. Type of series: functional.
Series [33] has as its system Mus musculus. Description: Toxicity in CD1 mouse assessed as body weight at 40 mg/kg, ip after day 1. Type of series: organism-based. Set-up: dose 40 mg/kg, route intraperitoneal. As to conditions: in vivo.
For series [34], the system named is Candida albicans. The experiment in a line: Antifungal activity against Candida albicans B311 by twofold serial broth dilution method. Format: functional.
The subject of series [35] is Torula. Description: Antifungal activity against Torula cremoris NRRL 7495 at 1 mg/mL by agar-well diffusion assay. Type of series: functional.
Series [36] relates to Starmerella magnoliae. The experiment in a line: Antifungal activity against Candida magnoliae ATCC 12573 at 1 mg/mL by agar-well diffusion assay. Type of series: functional.
For series [37], the system named is Mus musculus. Description: Toxicity in CD1 mouse assessed as body weight at 40 mg/kg, ip administered for 14 consecutive days measured after day 21. Set-up: dose 40 mg/kg, route intraperitoneal. As to conditions: in vivo. Type of series: organism-based.

Regarding `COC(=O)C1=CC[C@@]23CC[C@@H]([C@@](C)(/C=C/C=C(\C)C(=O)OC)OC2=O)[C@@]3(OC(C)=O)CC1`, the zone of inhibition at 1000 µg/mL is under 1 mm in series [1] and 1 mm in series [12]. The result in series [2], in [3], in [4], in series [5], in [6] and in series [7] was inactive. The outcome in series [8], in series [9], in series [10] and in [11] was inactive.

Regarding `COC(=O)C1=CC[C@@]23CC[C@@H]([C@@](C)(/C=C/C=C(\C)C(=O)O)OC2=O)[C@@]3(OC(C)=O)CC1`, the outcome in [2], in series [3], in [4], in series [6], in series [7] and in series [8] was inactive. Further, the result in [9], in series [15] and in [12] was inactive. For the same molecule, the outcome in [13] and in series [14] was Active.

In the case of `C/C(=C\C=C\[C@@]1(C)OC(=O)[C@]23CC=C(C(=O)O)CC[C@]2(O)[C@H]1CC3)C(=O)O` [DEMETHOXYDEACETOXYPSEUDOLARIC ACID B], the zone of inhibition at 1000 µg/mL in [1] is under 1 mm; in series [10] (Trichophyton mentagrophytes, read-out: IZ), 3 mm; in series [12], 1 mm. Moreover, the outcome in series [2], in [3], in [4], in series [5], in [6] and in series [7] was inactive. Moreover, the result in [8], in series [9] and in series [11] was inactive.

Turning to `COC(=O)C1=CC[C@@]23CC[C@@H]([C@@](C)(/C=C/C=C(\C)C(=O)[O-])OC2=O)[C@@]3(OC(C)=O)CC1.[K+]` [POTASSIUM PSEUDOLARATE B], the MFC was 12.5 µg/mL in [16]; 12.5 µg/mL in series [17]; 6.25 µg/mL in series [20]; 6.25 µg/mL in series [22]; 6.25 µg/mL in series [24]; 25 µg/mL in series [25]. The MFC in series [31], in [32] and in series [34] was 6.25 µg/mL in each case. For the same molecule, the MIC in [16] was 12.5 µg/mL; in series [17], 0.78 µg/mL; in series [20], 1.56 µg/mL; in [22], 3.12 µg/mL; in series [24], 0.78 µg/mL; in series [25] it was 3.12 µg/mL. In addition, the MIC in series [31] came out at 3.12 µg/mL; in series [32], 1.56 µg/mL; in series [34], 3.12 µg/mL. For the same molecule, the “inhibition zone (IZ)” value in [1] is on record as 7 mm; in series [18] it was 7 mm; in series [19] it was 7 mm; in series [21], over 12 mm; in [23], 7 mm; in series [5] it was 3 mm. The “inhibition zone (IZ)” value in series [26], in series [28], in series [29], in series [30], in series [10] and in series [11] was 7 mm each time. The “inhibition zone (IZ)” value is 3 mm in series [35] and under 1 mm in [36]. Moreover, the Activity in series [27] worked out at 25.4 g; in [33], 24.2 g; in series [37] it was 25.6 g.

In the case of `CC(=O)O[C@]12CCC(C(=O)O)=CC[C@]13CC[C@H]2[C@@](C)(/C=C/C=C(\C)C(=O)O)OC3=O` [PSEUDOLARIC ACID C2], in series [1], the zone of inhibition at 1000 µg/mL is under 1 mm. Also, the result in series [2], in [3], in series [4], in series [5], in series [6] and in [7] was inactive. Besides, the result in [8], in series [9], in series [10], in [11] and in series [12] was inactive.

For the molecule `COC(=O)C1=CC[C@@]23CC[C@@H]([C@@](C)(/C=C/C=C(\C)C(=O)O)OC2=O)[C@@]3(O)CC1` [PSEUDOLARIC ACID C], the zone of inhibition at 1000 µg/mL turned out to be 1 mm in series [1]; 1 mm in series [4] (read-out: IZ); 1 mm in series [5] (Aspergillus fumigatus, read-out: IZ); 1 mm in [9] (read-out: IZ); 1 mm in series [12]. Besides, the result in series [2], in series [3], in series [6], in series [7], in series [8] and in series [10] was inactive. Further, the result in series [11] was inactive.

As for `COC(=O)C1=CC[C@@]23CC[C@@H]([C@@](C)(/C=C/C=C(\C)C(=O)[O-])OC2=O)[C@@]3(OC(C)=O)CC1.[Na+]` [SODIUM PSEUDOLARATE B], the “inhibition zone (IZ)” value is listed as 7 mm in series [1], 3 mm in series [5], 7 mm in [10] and 7 mm in series [11].

What is called MFC is the lowest tested concentration that kills the fungus rather than only halting it. Read a high MFC as weaker fungicidal potency. As a reminder, the MIC is the lowest concentration found to suppress growth. Read a high MIC as a need for much substance.
